In one assay the target is T1, SYK kinase (Homo sapiens, UniProt P43405).
T1 construct: purchased Invitrogen, Carlsbad
Nature of the assay: SYK assay (OMNIA Kinase Assay, Invitrogen). Type of assay: biochemical. Particulars: apparent Ki calculated from the IC50 using the Cheng-Prusoff equation; 1 mM ATP, 10 μM Peptide Substrate; read-out: SYK Activities: Ki. In a few lines:
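Continuous SOX-fluorescence (Omnia) readout of Tyr 7 peptide (10 μM) phosphorylation with 1 mM ATP and 0.2 mM DTT at 30° C, started by SYK addition. Fluorescence (λex 360/λem 485 nm) was read every 30 s for 30 min. IC50 from velocity vs concentration; apparent Ki via Cheng-Prusoff.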

The target of another assay is LRRK2 (Homo sapiens, UniProt Q5S007). The assay can be described thus: LRRK2 assay (LanthaScreen Eu Kinase Binding Assay). To be noted: 5 nM LRRK2, 10 nM tracer 236, RT 1 h; read-out: LRRK2 Activites: IC50. An excerpt:
Binding of the tracer to the kinase is detected using a europium-labeled anti-tag antibody, which binds to the kinase of interest. […] Binding of an inhibitor to the kinase competes for binding with the tracer, resulting in a loss of FRET. The fluorescence intensity ratio is directly proportional to the amount of peptide phosphorylation.
The inhibitor concentration was plotted versus the emission ratio to determine the IC50 using XLFit 5.0 (IDBS, Guildford) to fit to a sigmoidal dose response curve with a variable slope.

Drawing on patent US9499535B2, “Kinase inhibitors” (ORIGENIS GMBH, priority 2011, dated 2016), this text covers Ki and IC50 for 14 compounds.

By IC50 is commonly meant the concentration that inhibits the measured activity by half.

LRRK2, sequence (Q5S007 970-2527 limits assumed): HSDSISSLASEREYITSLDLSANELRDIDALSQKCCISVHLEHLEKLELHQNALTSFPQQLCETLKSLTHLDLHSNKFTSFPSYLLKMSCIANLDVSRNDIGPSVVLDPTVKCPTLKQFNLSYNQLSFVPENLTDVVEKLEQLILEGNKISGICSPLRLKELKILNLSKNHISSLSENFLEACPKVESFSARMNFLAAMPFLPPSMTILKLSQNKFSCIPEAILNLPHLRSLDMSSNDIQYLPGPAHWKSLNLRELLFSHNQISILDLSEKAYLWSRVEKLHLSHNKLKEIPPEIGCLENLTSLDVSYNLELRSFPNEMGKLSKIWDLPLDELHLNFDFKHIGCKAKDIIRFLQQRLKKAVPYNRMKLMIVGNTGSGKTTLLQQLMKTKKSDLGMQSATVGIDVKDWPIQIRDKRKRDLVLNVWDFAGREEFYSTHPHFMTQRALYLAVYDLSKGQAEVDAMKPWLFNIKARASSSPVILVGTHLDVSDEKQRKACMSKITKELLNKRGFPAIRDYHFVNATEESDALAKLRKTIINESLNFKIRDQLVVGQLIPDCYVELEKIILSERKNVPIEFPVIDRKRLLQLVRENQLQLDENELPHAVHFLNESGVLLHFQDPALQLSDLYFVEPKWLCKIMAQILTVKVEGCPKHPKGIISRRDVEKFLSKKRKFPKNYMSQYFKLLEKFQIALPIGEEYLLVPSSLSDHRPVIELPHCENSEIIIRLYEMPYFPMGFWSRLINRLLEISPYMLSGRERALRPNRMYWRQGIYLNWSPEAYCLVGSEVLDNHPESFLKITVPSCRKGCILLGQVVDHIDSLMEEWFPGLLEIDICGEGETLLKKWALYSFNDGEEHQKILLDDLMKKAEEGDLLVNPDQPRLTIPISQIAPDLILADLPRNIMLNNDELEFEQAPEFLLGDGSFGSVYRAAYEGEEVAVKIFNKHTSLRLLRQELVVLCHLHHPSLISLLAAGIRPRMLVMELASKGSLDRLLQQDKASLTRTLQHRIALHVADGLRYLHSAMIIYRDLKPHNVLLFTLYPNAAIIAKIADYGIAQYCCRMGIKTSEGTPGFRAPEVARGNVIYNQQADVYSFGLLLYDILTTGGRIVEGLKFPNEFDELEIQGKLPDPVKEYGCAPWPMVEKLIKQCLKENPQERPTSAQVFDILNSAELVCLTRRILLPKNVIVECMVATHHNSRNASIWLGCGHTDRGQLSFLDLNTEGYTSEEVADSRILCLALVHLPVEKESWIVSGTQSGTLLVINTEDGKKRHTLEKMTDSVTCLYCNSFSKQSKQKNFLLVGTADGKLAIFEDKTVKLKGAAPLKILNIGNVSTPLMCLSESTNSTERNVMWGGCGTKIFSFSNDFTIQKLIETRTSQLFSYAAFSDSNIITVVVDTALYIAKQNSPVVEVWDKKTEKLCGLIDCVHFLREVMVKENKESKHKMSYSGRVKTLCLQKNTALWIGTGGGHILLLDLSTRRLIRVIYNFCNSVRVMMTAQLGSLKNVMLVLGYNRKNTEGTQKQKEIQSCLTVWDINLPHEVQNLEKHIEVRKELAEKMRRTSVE

Turning to `COc1cccc2c1nc(Nc1ccc3c(c1)NC(=O)CO3)c1n[nH]cc12` [Example #250, 6-((6-methoxy-2H-pyrazolo[3,4-c]quinolin-4-yl)amino)-2H-benzo[b][1,4]oxazin-3(4H)-one], at SYK kinase, the Ki is 0.01 to 0.1 µM. Also, the IC50 on LRRK2 lay within 0.1 to 1 µM.

With `COc1ccc2c(c1)nc(Nc1ccc3[nH]ncc3c1)c1n[nH]cc12` [Example #256, (1H-Indazol-5-yl)-(7-methoxy-2H-pyrazolo[3,4-c]quinolin-4-yl)-amine], the Ki on SYK kinase was 0.01 to 0.1 µM. Besides, the IC50 at LRRK2 lay within 0.1 to 1 µM.

For `COc1cccc2c1nc(Nc1ccc(C)cc1)c1n[nH]cc12` [Example #274, (6-Methoxy-2H-pyrazolo[3,4-c]quinolin-4-yl)-p-tolyl-amine], the Ki at SYK kinase is 0.01 to 0.1 µM. The IC50 on LRRK2 lay within 0.1 to 1 µM.

`COc1ccc2nc(Nc3ccc(OCC(=O)O)c(OC)c3)c3n[nH]cc3c2c1` [Example #279, 2-(2-methoxy-4-((8-methoxy-2H-pyrazolo[3,4-c]quinolin-4-yl)amino)phenoxy)acetic-acid]: the Ki on SYK kinase is 0.1 to 1 µM. At LRRK2, the IC50 lay within 0.1 to 1 µM.

On to `COc1ccc2nc(Nc3ccc(CC(=O)O)cc3)c3n[nH]cc3c2c1` [Example #285, 2-(4-((8-methoxy-2H-pyrazolo[3,4-c]quinolin-4-yl)amino)phenyl)acetic acid], for which the Ki on SYK kinase was 0.1 to 1 µM. For the same compound, the IC50 on LRRK2 is 0.1 to 1 µM.

As to `COc1ccc2nc(Nc3ccc(N4CCSCC4)cc3)c3[nH]ncc3c2c1` [Example #293, 8-methoxy-N-(4-thiomorpholinophenyl)-2H-pyrazolo[3,4-c]quinolin-4-amine], the Ki on SYK kinase was < 0.01 µM. Moreover, at LRRK2, the IC50 fell in the range of 0.01 to 0.1 µM.

Take `COc1ccc2nc(Nc3ccc(C(=O)N4CCC4)cc3)c3n[nH]cc3c2c1` [Example #302, azetidin-1-yl(4-((8-methoxy-2H-pyrazolo[3,4-c]quinolin-4-yl)amino)phenyl)methanone]: at SYK kinase, the Ki was 0.01 to 0.1 µM. Moreover, the IC50 on LRRK2 was < 0.01 µM.

With `COc1ccc2nc(Nc3ccc(F)cc3)c3n[nH]cc3c2c1` [Example #310, N-(4-fluorophenyl)-8-methoxy-2H-pyrazolo[3,4-c]quinolin-4-amine], the Ki on SYK kinase is 0.01 to 0.1 µM. For the same compound, the IC50 at LRRK2 was in the range of 0.1 to 1 µM.

With `COc1ccc2nc(Nc3ccc(NC(=O)C(F)(F)F)cc3)c3n[nH]cc3c2c1` [Example #312, 2,2,2-trifluoro-N-(4-((8-methoxy-2H-pyrazolo[3,4-c]quinolin-4-yl)amino)phenyl)acetamide], the Ki on SYK kinase was 0.1 to 1 µM. Moreover, the IC50 on LRRK2 is 0.1 to 1 µM.

`COc1ccc2nc(Nc3ccc4c(c3)N=C(NCCCO)CO4)c3n[nH]cc3c2c1` [Example #313, 3-((6-((8-methoxy-2H-pyrazolo[3,4-c]quinolin-4-yl)amino)-2H-benzo[b][1,4]oxazin-3-yl)amino)propan-1-ol]: the Ki at SYK kinase was 0.01 to 0.1 µM. Also, the IC50 at LRRK2 was 0.01 to 0.1 µM.

Regarding `COc1ccc2nc(Nc3ccc4c(c3)N=C(NCCc3ccccc3)CO4)c3n[nH]cc3c2c1` [Example #314, N6-(8-methoxy-2H-pyrazolo[3,4-c]quinolin-4-yl)-N3-phenethyl-2H-benzo[b][1,4]oxazine-3,6-diamine], on SYK kinase, the Ki is 0.01 to 0.1 µM. Moreover, the IC50 on LRRK2 was in the range of 0.01 to 0.1 µM.

Consider `COc1ccc2nc(Nc3cc(F)c(F)c(F)c3)c3n[nH]cc3c2c1` [Example #317, 8-methoxy-N-(3,4,5-trifluorophenyl)-2H-pyrazolo[3,4-c]quinolin-4-amine], for which the Ki at SYK kinase is 0.01 to 0.1 µM. Also, the IC50 on LRRK2 lay in the range of 0.1 to 1 µM.

Take `COc1ccc2nc(Nc3ccc(N4CCOCC4)c(OC)c3)c3n[nH]cc3c2c1` [Example #319, 8-methoxy-N-(3-methoxy-4-morpholinophenyl)-2H-pyrazolo[3,4-c]quinolin-4-amine]: the Ki on SYK kinase is 0.01 to 0.1 µM. The IC50 on LRRK2 is 0.1 to 1 µM.

Turning to `COc1ccc2nc(Nc3ccc(C(O)(C(F)(F)F)C(F)(F)F)cc3)c3n[nH]cc3c2c1` [Example #321, 1,1,1,3,3,3-hexafluoro-2-(4-((8-methoxy-2H-pyrazolo[3,4-c]quinolin-4-yl)amino)phenyl)propan-2-ol], the Ki at SYK kinase is 0.1 to 1 µM. The IC50 on LRRK2 lay in the range of 0.1 to 1 µM.
